Test results as given in ChEMBL document CHEMBL1909046, “DrugMatrix in vitro pharmacology data”.

Each compound was assayed against Beta-2 adrenergic receptor (Homo sapiens, UniProt P07550) (assay: DRUGMATRIX: Adrenergic beta2 radioligand binding (ligand: [3H] CGP-12177)). Conditions: cho; Not Active = under 50% inhibition at 10 µM.
Format: cell membranes, CHO, Membrane

Beta-2 adrenergic receptor, sequence (P07550 whole entry): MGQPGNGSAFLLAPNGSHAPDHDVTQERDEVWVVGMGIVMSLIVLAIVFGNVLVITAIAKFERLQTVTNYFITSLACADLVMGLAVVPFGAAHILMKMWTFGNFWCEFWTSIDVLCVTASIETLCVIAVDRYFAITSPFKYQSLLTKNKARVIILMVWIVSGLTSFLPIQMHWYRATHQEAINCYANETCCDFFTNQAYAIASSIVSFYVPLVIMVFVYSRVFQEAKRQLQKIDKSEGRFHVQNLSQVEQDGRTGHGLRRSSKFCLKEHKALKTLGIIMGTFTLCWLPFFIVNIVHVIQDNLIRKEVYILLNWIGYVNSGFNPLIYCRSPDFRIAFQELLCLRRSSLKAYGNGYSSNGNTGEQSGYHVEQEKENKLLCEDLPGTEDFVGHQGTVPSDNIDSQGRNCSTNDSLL

SMILES | IC50
Clc1ccc(COC(Cn2ccnc2)c2ccc(Cl)cc2Cl)c(Cl)c1 (centres undefined) [MICONAZOLE] | Not Active
Oc1ccc2c3c1O[C@H]1[C@@H](O)CC[C@@]4(O)[C@@H](C2)N(CC2CCC2)CC[C@]314 [NALBUPHINE] | Not Active
C[C@]12C=CC(=O)C=C1CC[C@@H]1[C@@H]2C(=O)C[C@@]2(C)[C@H]1CC[C@]2(O)C(=O)CO [PREDNISONE] | Not Active
OCCOCCN1CCN(C2=Nc3ccccc3Sc3ccccc32)CC1 [QUETIAPINE] | Not Active
COC(=O)[C@H]1[C@H]2C[C@@H]3c4[nH]c5cc(OC)ccc5c4CCN3C[C@H]2C[C@@H](OC(=O)c2cc(OC)c(OC)c(OC)c2)[C@@H]1OC [RESERPINE] | Not Active
O=C(O)c1ccccc1O [SALICYLIC ACID] | Not Active
C[S+]([O-])c1ccc(-c2nc(-c3ccncc3)c(-c3ccc(F)cc3)[nH]2)cc1 (centres undefined) [SB-203580] | Not Active

These compounds were tested against T1, B2 bradykinin receptor (Homo sapiens, UniProt P30411). Conditions: chem-1.
T1 sequence (P30411 whole entry): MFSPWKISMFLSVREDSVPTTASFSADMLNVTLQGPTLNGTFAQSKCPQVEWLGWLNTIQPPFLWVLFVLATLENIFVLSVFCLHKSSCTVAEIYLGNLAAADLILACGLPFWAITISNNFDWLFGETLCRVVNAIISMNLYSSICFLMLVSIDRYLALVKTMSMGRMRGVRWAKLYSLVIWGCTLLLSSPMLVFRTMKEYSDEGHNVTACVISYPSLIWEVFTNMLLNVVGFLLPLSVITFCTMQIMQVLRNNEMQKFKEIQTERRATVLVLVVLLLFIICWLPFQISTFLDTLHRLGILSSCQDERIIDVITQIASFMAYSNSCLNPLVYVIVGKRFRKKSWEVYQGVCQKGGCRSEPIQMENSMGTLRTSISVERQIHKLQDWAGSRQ
Format: cell membranes, Membrane

SMILES | IC50
Clc1ccc(COC(Cn2ccnc2)c2ccc(Cl)cc2Cl)c(Cl)c1 (centres undefined) [MICONAZOLE] | Not Active
Oc1ccc2c3c1O[C@H]1[C@@H](O)CC[C@@]4(O)[C@@H](C2)N(CC2CCC2)CC[C@]314 [NALBUPHINE] | Not Active
C[C@]12C=CC(=O)C=C1CC[C@@H]1[C@@H]2C(=O)C[C@@]2(C)[C@H]1CC[C@]2(O)C(=O)CO [PREDNISONE] | Not Active
OCCOCCN1CCN(C2=Nc3ccccc3Sc3ccccc32)CC1 [QUETIAPINE] | Not Active
COC(=O)[C@H]1[C@H]2C[C@@H]3c4[nH]c5cc(OC)ccc5c4CCN3C[C@H]2C[C@@H](OC(=O)c2cc(OC)c(OC)c(OC)c2)[C@@H]1OC [RESERPINE] | Not Active
O=C(O)c1ccccc1O [SALICYLIC ACID] | Not Active
C[S+]([O-])c1ccc(-c2nc(-c3ccncc3)c(-c3ccc(F)cc3)[nH]2)cc1 (centres undefined) [SB-203580] | Not Active

What follows are compounds tested against T2, Progesterone receptor (Bos taurus, UniProt Q690N0) (assay: DRUGMATRIX: Progesterone radioligand binding (ligand: [3H] R-5020)). Conditions: Not Active = under 50% inhibition at 10 µM.
T2 sequence (Q690N0 whole entry): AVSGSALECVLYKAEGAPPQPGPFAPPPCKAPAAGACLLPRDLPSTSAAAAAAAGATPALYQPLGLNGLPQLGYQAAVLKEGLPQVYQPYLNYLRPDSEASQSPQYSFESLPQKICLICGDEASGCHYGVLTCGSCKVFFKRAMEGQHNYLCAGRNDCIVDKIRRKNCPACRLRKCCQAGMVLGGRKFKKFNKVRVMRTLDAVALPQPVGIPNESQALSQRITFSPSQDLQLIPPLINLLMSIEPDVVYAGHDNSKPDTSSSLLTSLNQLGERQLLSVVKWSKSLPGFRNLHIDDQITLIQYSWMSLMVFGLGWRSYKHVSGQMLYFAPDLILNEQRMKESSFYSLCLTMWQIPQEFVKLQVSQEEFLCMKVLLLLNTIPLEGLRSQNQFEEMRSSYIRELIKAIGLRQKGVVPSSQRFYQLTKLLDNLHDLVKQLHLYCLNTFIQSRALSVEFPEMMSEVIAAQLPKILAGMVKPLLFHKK
Format: tissue-based, Uterus

SMILES | IC50
Oc1ccc2c3c1O[C@H]1[C@@H](O)CC[C@@]4(O)[C@@H](C2)N(CC2CCC2)CC[C@]314 [NALBUPHINE] | Not Active
C[C@]12C=CC(=O)C=C1CC[C@@H]1[C@@H]2C(=O)C[C@@]2(C)[C@H]1CC[C@]2(O)C(=O)CO [PREDNISONE] | Not Active
OCCOCCN1CCN(C2=Nc3ccccc3Sc3ccccc32)CC1 [QUETIAPINE] | Not Active
COC(=O)[C@H]1[C@H]2C[C@@H]3c4[nH]c5cc(OC)ccc5c4CCN3C[C@H]2C[C@@H](OC(=O)c2cc(OC)c(OC)c(OC)c2)[C@@H]1OC [RESERPINE] | Not Active
O=C(O)c1ccccc1O [SALICYLIC ACID] | Not Active
C[S+]([O-])c1ccc(-c2nc(-c3ccncc3)c(-c3ccc(F)cc3)[nH]2)cc1 (centres undefined) [SB-203580] | Not Active

Same assay, conditions: Not Active = under 50% inhibition at 10 µM; read-out: IC50

SMILES | IC50 [µM]
Clc1ccc(COC(Cn2ccnc2)c2ccc(Cl)cc2Cl)c(Cl)c1 (centres undefined) [MICONAZOLE] | 14.9

Same assay, conditions: Not Active = under 50% inhibition at 10 µM; read-out: Ki

SMILES | Ki [µM]
Clc1ccc(COC(Cn2ccnc2)c2ccc(Cl)cc2Cl)c(Cl)c1 (centres undefined) [MICONAZOLE] | 1.94

The compounds below were run against Protein kinase C alpha type (Homo sapiens, UniProt P17252). Conditions: sf9.
Format: cell-based

SMILES | IC50
Clc1ccc(COC(Cn2ccnc2)c2ccc(Cl)cc2Cl)c(Cl)c1 (centres undefined) [MICONAZOLE] | Not Active
Oc1ccc2c3c1O[C@H]1[C@@H](O)CC[C@@]4(O)[C@@H](C2)N(CC2CCC2)CC[C@]314 [NALBUPHINE] | Not Active
C[C@]12C=CC(=O)C=C1CC[C@@H]1[C@@H]2C(=O)C[C@@]2(C)[C@H]1CC[C@]2(O)C(=O)CO [PREDNISONE] | Not Active
OCCOCCN1CCN(C2=Nc3ccccc3Sc3ccccc32)CC1 [QUETIAPINE] | Not Active
COC(=O)[C@H]1[C@H]2C[C@@H]3c4[nH]c5cc(OC)ccc5c4CCN3C[C@H]2C[C@@H](OC(=O)c2cc(OC)c(OC)c(OC)c2)[C@@H]1OC [RESERPINE] | Not Active
O=C(O)c1ccccc1O [SALICYLIC ACID] | Not Active
C[S+]([O-])c1ccc(-c2nc(-c3ccncc3)c(-c3ccc(F)cc3)[nH]2)cc1 (centres undefined) [SB-203580] | Not Active

What follows are compounds tested against Adenosine receptor A2a (Homo sapiens, UniProt P29274) (assay: DRUGMATRIX: Adenosine A2A radioligand binding (ligand: […])). Conditions: Not Active = under 50% inhibition at 10 µM; read-out: IC50.
Adenosine receptor A2a, sequence (P29274 whole entry): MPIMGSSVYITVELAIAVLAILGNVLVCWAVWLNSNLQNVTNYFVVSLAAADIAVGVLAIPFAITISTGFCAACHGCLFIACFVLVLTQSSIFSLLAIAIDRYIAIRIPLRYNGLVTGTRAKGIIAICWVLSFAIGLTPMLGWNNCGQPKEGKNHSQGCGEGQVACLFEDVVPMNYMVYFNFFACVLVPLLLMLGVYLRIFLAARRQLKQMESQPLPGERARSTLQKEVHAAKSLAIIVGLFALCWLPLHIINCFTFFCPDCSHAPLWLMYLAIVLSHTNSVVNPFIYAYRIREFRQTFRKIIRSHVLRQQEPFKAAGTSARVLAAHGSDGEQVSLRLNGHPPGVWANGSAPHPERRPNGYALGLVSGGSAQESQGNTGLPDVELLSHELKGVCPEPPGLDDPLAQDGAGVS
Format: cell membranes, HEK293, Membrane

SMILES | IC50 [µM]
C[S+]([O-])c1ccc(-c2nc(-c3ccncc3)c(-c3ccc(F)cc3)[nH]2)cc1 (centres undefined) [SB-203580] | 6.07

Same assay, conditions: Not Active = under 50% inhibition at 10 µM; read-out: Ki

SMILES | Ki [µM]
C[S+]([O-])c1ccc(-c2nc(-c3ccncc3)c(-c3ccc(F)cc3)[nH]2)cc1 (centres undefined) [SB-203580] | 3.41

Same assay, conditions: hek293; Not Active = under 50% inhibition at 10 µM

SMILES | IC50
Oc1ccc2c3c1O[C@H]1[C@@H](O)CC[C@@]4(O)[C@@H](C2)N(CC2CCC2)CC[C@]314 [NALBUPHINE] | Not Active
C[C@]12C=CC(=O)C=C1CC[C@@H]1[C@@H]2C(=O)C[C@@]2(C)[C@H]1CC[C@]2(O)C(=O)CO [PREDNISONE] | Not Active
OCCOCCN1CCN(C2=Nc3ccccc3Sc3ccccc32)CC1 [QUETIAPINE] | Not Active
COC(=O)[C@H]1[C@H]2C[C@@H]3c4[nH]c5cc(OC)ccc5c4CCN3C[C@H]2C[C@@H](OC(=O)c2cc(OC)c(OC)c(OC)c2)[C@@H]1OC [RESERPINE] | Not Active
O=C(O)c1ccccc1O [SALICYLIC ACID] | Not Active

These compounds were tested against T3, Cytochrome P450 1A2 (Homo sapiens, UniProt P05177). Conditions: bti-tn-5b1-4.
T3 sequence (P05177 whole entry): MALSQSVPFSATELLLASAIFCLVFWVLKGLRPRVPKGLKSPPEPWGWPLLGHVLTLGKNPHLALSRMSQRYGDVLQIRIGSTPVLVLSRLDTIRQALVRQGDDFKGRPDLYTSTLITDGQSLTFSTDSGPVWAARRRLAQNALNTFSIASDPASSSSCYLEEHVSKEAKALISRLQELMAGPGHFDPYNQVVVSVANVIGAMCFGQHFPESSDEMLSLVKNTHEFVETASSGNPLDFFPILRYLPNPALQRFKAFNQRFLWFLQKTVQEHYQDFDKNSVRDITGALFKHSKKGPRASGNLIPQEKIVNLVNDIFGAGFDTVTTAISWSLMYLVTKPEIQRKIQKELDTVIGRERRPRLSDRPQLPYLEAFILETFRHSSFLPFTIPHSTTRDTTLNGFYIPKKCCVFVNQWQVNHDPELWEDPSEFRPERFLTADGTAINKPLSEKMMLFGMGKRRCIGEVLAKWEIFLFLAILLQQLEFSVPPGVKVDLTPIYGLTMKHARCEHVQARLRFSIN

SMILES | IC50 | Ki
Clc1ccc(COC(Cn2ccnc2)c2ccc(Cl)cc2Cl)c(Cl)c1 (centres undefined) [MICONAZOLE] | Not Active | Not Active
OCCOCCN1CCN(C2=Nc3ccccc3Sc3ccccc32)CC1 [QUETIAPINE] | Not Active | Not Active
COC(=O)[C@H]1[C@H]2C[C@@H]3c4[nH]c5cc(OC)ccc5c4CCN3C[C@H]2C[C@@H](OC(=O)c2cc(OC)c(OC)c(OC)c2)[C@@H]1OC [RESERPINE] | Not Active | Not Active
O=C(O)c1ccccc1O [SALICYLIC ACID] | Not Active | Not Active
